Entries after “also recorded” stand apart in the source; their conditions may differ. Where two headings read alike, the source gives them in different places.
Tests used:
OATP1B3 F555H = conditions: F555H mutation; cited from earlier work
OATP1B1 H555F = conditions: H555 F variant; cited from earlier work
OATP1B1 [1] = conditions: cited from earlier work
OATP1B1 [2] = assay type: cell-based, human; conditions: HEK293 over-expressing OATP1B1; substrate not specified at the place

Molecule: O=C(O[C@@H]1Cc2c(O)cc(O)cc2O[C@@H]1c1cc(O)c(O)c(O)c1)c1cc(O)c(O)c(O)c1 [EGCG, epigallocatechin gallate]
- EGCG transport by OATP1B3 (OATP1B3 F555H): significantly reduced

Molecule: cholecystokinin-8: called an OATP1B1-specific substrate
- uptake by OATP1B1 (OATP1B1 H555F): abolished

Molecule: C=CC1=C(C)/C(=C/c2[nH]c(Cc3[nH]c(/C=C4\NC(=O)C(C)=C4C=C)c(C)c3CCC(=O)O)c(CCC(=O)O)c2C)NC1=O [bilirubin]
- inhibition of and transport by OATP1B1 (OATP1B1 [1]; no reference given): is a natural transport substrate, but does not inhibit transport

Molecule: CO[C@H]1/C=C/O[C@@]2(C)Oc3c(C)c(O)c4c(O)c(c(/C=N/N5CCN(C)CC5)c(O)c4c3C2=O)NC(=O)/C(C)=C\C=C\[C@H](C)[C@H](O)[C@@H](C)[C@@H](O)[C@@H](C)[C@H](OC(C)=O)[C@@H]1C [rifampicin]
- inhibition of and transport by OATP1B1 (OATP1B1 [1]): both inhibits and is transported by OATP1B1

B1: Sb5: synthetic nanobody (sybody) that binds to OATP1B1 in both its apo and cyclosporine A-bound forms (antibody, V domains shown)
VH: QVQLVESGGGLVQAGGSLRLSCAASGFPVNLSYMHWYRQAPGKEREWVAAISSWGWHTEYADSVKGRFTISRDNAKNTVYLQMNSLKPEDTAVYYCHVRVGRSYFGQGTQVSVSA
- inhibition of OATP1B1 substrate transport (OATP1B1 [2]): does not impair the ability of OATP1B1 to transport substrates; also recorded: did not inhibit substrate transport by OATP1B1

From paper PMC12127550 (The Journal of Biological Chemistry, 2025)
